Experimental data from PubChem BioAssay AID248 (DTP/NCI, 2004).
Values joined by “and” are separate entries in the source; they are usually repeats but may differ in a detail not shown here. Equal entries are not always repeated. Inconclusive results and toxic doses are left out. Rule as the data show it: active = T/C of 150% or more; inactive = T/C below 125%.

Test system: L1210 leukemia ip in BDF1 mice, survival T/C
Assay: NCI In Vivo Anticancer Drug Screen. Data for tumor model L1210 Leukemia (intraperitoneal) in B6D2F1 (BDF1) mice
Settings: endpoint: mean survival time, higher = longer survival
Summary of the method: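 In this screen, tumor-bearing mice given compound are compared to those given vehicle, and their survival values are reported as a treated-to-control quotient.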

[1] = dose: 100.0 mg/kg/injection, schedule: Q01DX009 (ip), vehicle: gum acacia
[2] = dose: 200.0 mg/kg/injection, schedule: Q01DX009 (ip), vehicle: gum acacia
[3] = dose: 400.0 mg/kg/injection, schedule: Q01DX009 (ip), vehicle: gum acacia
[4] = dose: 20.0 mg/kg/injection, schedule: Q04DX003 (ip), vehicle: Klucel (hydroxypropylcellulose) (HPC)
[5] = dose: 40.0 mg/kg/injection, schedule: Q04DX003 (ip), vehicle: Klucel (hydroxypropylcellulose) (HPC)
[6] = dose: 100.0 mg/kg/injection, schedule: Q01DX009 (ip), vehicle: Klucel (hydroxypropylcellulose) (HPC)
[7] = dose: 100.0 mg/kg/injection, schedule: Q04DX003 (ip), vehicle: Klucel (hydroxypropylcellulose) (HPC)
[8] = dose: 200.0 mg/kg/injection, schedule: Q04DX003 (ip), vehicle: Klucel (hydroxypropylcellulose) (HPC)
[9] = dose: 400.0 mg/kg/injection, schedule: Q04DX003 (ip), vehicle: Klucel (hydroxypropylcellulose) (HPC)
[10] = dose: 75.0 mg/kg/injection, schedule: Q01DX001 (ip), vehicle: saline
[11] = dose: 200.0 mg/kg/injection, schedule: Q01DX009 (ip), vehicle: Klucel (hydroxypropylcellulose) (HPC)
[12] = dose: 100.0 mg/kg/injection, schedule: Q01DX001 (ip), vehicle: saline
[13] = dose: 200.0 mg/kg/injection, schedule: Q01DX001 (ip), vehicle: saline
[14] = dose: 400.0 mg/kg/injection, schedule: Q01DX001 (ip), vehicle: saline
[15] = dose: 100.0 mg/kg/injection, schedule: Q04DX003 (ip), vehicle: saline with Tween-80
[16] = dose: 25.0 mg/kg/injection, schedule: Q04DX003 (ip), vehicle: saline with Tween-80
[17] = dose: 50.0 mg/kg/injection, schedule: Q04DX003 (ip), vehicle: saline with Tween-80
[18] = dose: 100.0 mg/kg/injection, schedule: Q01DX001 (ip), vehicle: saline with Tween-80

Measured: T/C

CCOC(=O)C(C)NC(=O)C(C)NC(=O)OCc1ccccc1 (stereo unspecified)
inactive: [1] 101 % of control | dose: 100.0 mg/kg/injection, schedule: Q04DX003 (ip), vehicle: gum acacia 103 % of control | [2] 93 % of control | dose: 200.0 mg/kg/injection, schedule: Q04DX003 (ip), vehicle: gum acacia 101 % of control | [3] 87 % of control | dose: 400.0 mg/kg/injection, schedule: Q04DX003 (ip), vehicle: gum acacia 92 % of control

O=C(COc1ccccc1)NCc1cccc(Cl)c1
inactive: [1] 99 % of control | [2] 92 % of control | [3] 92 % of control

O=[N+]([O-])c1ccc2c(c1)-c1ccccc1C1=NCCN12
inactive: [4] 91 % of control | dose: 25.0 mg/kg/injection, schedule: Q01DX009 (ip), vehicle: Klucel (hydroxypropylcellulose) (HPC) 105 % of control | [5] 96 % of control | dose: 50.0 mg/kg/injection, schedule: Q01DX009 (ip), vehicle: Klucel (hydroxypropylcellulose) (HPC) 102 % of control | dose: 80.0 mg/kg/injection, schedule: Q04DX003 (ip), vehicle: Klucel (hydroxypropylcellulose) (HPC) 102 % of control | [6] 105 % of control | [7] 101 % of control

Cc1cc(C)c(OCC2CO2)c(C)c1 (stereo unspecified)
inactive: [7] 105 % of control | [8] 95 % of control | [9] 89 % of control

COC(C)C/C=N/Nc1nnc(N/N=C/CC(C)OC)c2ccccc12 (stereo unspecified)
inactive: dose: 5.0 mg/kg/injection, schedule: Q01DX001 (ip), vehicle: carboxymethylcellulose (CMC) 96 % of control | dose: 10.0 mg/kg/injection, schedule: Q01DX001 (ip), vehicle: carboxymethylcellulose (CMC) 93 % of control

COC1C(OC(N)=O)C(O)C(Oc2ccc3c(O)c(NC(=O)c4ccc(O)c(CC=C(C)C)c4)c(=O)oc3c2C)OC1(C)C (stereo unspecified)
inactive: dose: 50.0 mg/kg/injection, schedule: Q01DX Z (ip), vehicle: saline 91 % of control | dose: 100.0 mg/kg/injection, schedule: Q01DX Z (ip), vehicle: saline 91 % of control | dose: 200.0 mg/kg/injection, schedule: Q01DX Z (ip), vehicle: saline 91 % of control

C#CCCCCC#[C][Hg][C]#CCCCCC#C
inactive: [10] 94 % of control

Cc1cccc(C(=O)OCCBr)c1
inactive: dose: 100.0 mg/kg/injection, schedule: Q04DX003 (ip), vehicle: saline sonified 98 % of control | dose: 200.0 mg/kg/injection, schedule: Q04DX003 (ip), vehicle: saline sonified 104 % of control | dose: 400.0 mg/kg/injection, schedule: Q04DX003 (ip), vehicle: saline sonified 106 % of control

Cc1cccc(Cl)c1NC(=S)N1CCCC1
inactive: [6] 94 % of control | [11] 94 % of control | dose: 400.0 mg/kg/injection, schedule: Q01DX009 (ip), vehicle: Klucel (hydroxypropylcellulose) (HPC) 96 % of control

CCOP(=O)(O)Cc1c(Cl)c(Cl)c(CP(=O)(O)OCC)c(Cl)c1Cl
inactive: [12] 110 % of control | [13] 104 % of control | [14] 107 % of control

[Cl][Pt][Cl].c1ccc([PH+](c2ccccc2)C2CCCCC2)cc1.c1ccc([PH+](c2ccccc2)C2CCCCC2)cc1
inactive: dose: 6.25 mg/kg/injection, schedule: Q04DX003 (ip), vehicle: water 96 % of control | dose: 12.5 mg/kg/injection, schedule: Q04DX003 (ip), vehicle: water 98 % of control | dose: 25.0 mg/kg/injection, schedule: Q04DX003 (ip), vehicle: water 96 % of control | dose: 50.0 mg/kg/injection, schedule: Q04DX003 (ip), vehicle: water 98 % of control

NC(=O)C1OC(CO)C(O)C1O (stereo unspecified)
inactive: [15] 105 % of control | dose: 200.0 mg/kg/injection, schedule: Q04DX003 (ip), vehicle: saline with Tween-80 94 % of control | dose: 400.0 mg/kg/injection, schedule: Q04DX003 (ip), vehicle: saline with Tween-80 94 % of control

CCCCCCCCCCN1CCN2C(=O)N(CC)CCC2C1 (stereo unspecified)
inactive: [16] 94 % of control | [17] 105 % of control | [18] 96 % of control | [15] 94 % of control

CC1=C(OS(=O)(=O)c2ccc(C)cc2)CCCC1=O
inactive: dose: 50.0 mg/kg/injection, schedule: Q01DX009 (ip), vehicle: saline with Tween-80 100 % of control | dose: 100.0 mg/kg/injection, schedule: Q01DX009 (ip), vehicle: saline with Tween-80 100 % of control | dose: 200.0 mg/kg/injection, schedule: Q01DX009 (ip), vehicle: saline with Tween-80 88 % of control

COc1ccc(C(C)=O)cc1CCCO
inactive: [12] 95 % of control | [13] 91 % of control | [14] 97 % of control

O=C1C2(Cl)C(Cl)=C(Cl)C1(Cl)C1(Cl)C(Cl)=C(Cl)C(=O)C21Cl (stereo unspecified)
inactive: dose: 100.0 mg/kg/injection, schedule: Q01DX001 (ip), vehicle: Klucel (hydroxypropylcellulose) (HPC) 102 % of control | dose: 200.0 mg/kg/injection, schedule: Q01DX001 (ip), vehicle: Klucel (hydroxypropylcellulose) (HPC) 102 % of control | dose: 400.0 mg/kg/injection, schedule: Q01DX001 (ip), vehicle: Klucel (hydroxypropylcellulose) (HPC) 97 % of control

O=C(O)c1ccc2c([N+](=O)[O-])cccc2n1
inactive: [6] 100 % of control | [7] 96 % of control | [11] 97 % of control | [8] 107 % of control | [9] 93 % of control

NC(CCCNc1nc(O)c(-c2ccccc2)c(=O)[nH]1)C(=O)O (stereo unspecified)
inactive: [10] 104 % of control | dose: 150.0 mg/kg/injection, schedule: Q01DX001 (ip), vehicle: saline 102 % of control | dose: 300.0 mg/kg/injection, schedule: Q01DX001 (ip), vehicle: saline 102 % of control

O=[N+]([O-])c1ccccc1N=Nc1c(O)[nH]c2c(Cl)cccc12
inactive: [12] 97 % of control | [13] 100 % of control | [14] 97 % of control

CC(=O)[O][Hg][c]1c(C)c(C)c(C)c(C)c1C
inactive: dose: 12.5 mg/kg/injection, schedule: Q04DX003 (ip), vehicle: saline with Tween-80 87 % of control | [16] 87 % of control | [17] 87 % of control

NC(NCCN1CC1)(C(F)(F)F)C(F)(F)F
inactive: dose: 10.0 mg/kg/injection, schedule: Q04DX003 (ip), vehicle: Klucel (hydroxypropylcellulose) (HPC) 109 % of control | dose: 20.0 mg/kg/injection, schedule: Q01DX001 (ip), vehicle: Klucel (hydroxypropylcellulose) (HPC) 105 % of control | [4] 104 % of control | dose: 40.0 mg/kg/injection, schedule: Q01DX001 (ip), vehicle: Klucel (hydroxypropylcellulose) (HPC) 101 % of control | [5] 109 % of control

CC(C)=CCC/C(C)=C/Cn1ccccc1=O
inactive: [18] 98 % of control | dose: 200.0 mg/kg/injection, schedule: Q01DX001 (ip), vehicle: saline with Tween-80 98 % of control

CC/C=N\N=C(N)N
inactive: dose: 15.0 mg/kg/injection, schedule: Q01DX Z (ip), vehicle: saline 101 % of control | dose: 30.0 mg/kg/injection, schedule: Q01DX Z (ip), vehicle: saline 106 % of control | dose: 60.0 mg/kg/injection, schedule: Q01DX Z (ip), vehicle: saline 100 % of control | dose: 120.0 mg/kg/injection, schedule: Q01DX010 (oral), vehicle: saline 94 % of control | dose: 120.0 mg/kg/injection, schedule: Q01DX Z (ip), vehicle: saline 100 % of control | dose: 240.0 mg/kg/injection, schedule: Q01DX010 (oral), vehicle: saline 98 % of control | dose: 240.0 mg/kg/injection, schedule: Q01DX Z (ip), vehicle: saline 95 % of control

N#Cc1nc2c(nc1C#N)-c1ccccc1/C2=C1/C(=O)Cc2ccccc21
inactive: dose: 25.0 mg/kg/injection, schedule: Q04DX002 (ip), vehicle: other 93 % of control and 90 % of control

CCC(C)(C)N
inactive: [12] 91 % of control | [13] 97 % of control | [14] 101 % of control
